The source of these data is BindingDB's records for patent US20240208932 (Xizang Haisco Pharmaceutical, 2024).

Test in all cases: CYP450 Enzyme Inhibition Assay
The target of one experiment is Cytochrome P450 2C19 (Homo sapiens, UniProt P33261). The method, then:
(§1) The purpose of this study was to evaluate the effect of the test compound on the activity of five isoenzymes (CYP1A2, CYP2C9, CYP2C19, CYP2D6 and CYP3A4) of human liver microsomal cytochrome P450 (CYP) by using an in vitro testing system. The specific probe substrates of CYP450 isoenzymes were incubated with human liver microsomes and test compounds of different concentrations, and reduced nicotinamide adenine dinucleotide phosphate (NADPH) was added to initiate the reaction. After the completion of the reaction, the sample was treated and liquid chromatography-tandem mass spectrometry (LC-MS/MS) was used to quantitatively detect metabolites produced by specific substrates, changes in CYP enzyme activity were determined, and IC50 value was calculated to evaluate the inhibitory potential of the test compound on each CYP enzyme subtype.

The target in the next experiment is T1, Cytochrome P450 1A2 (Homo sapiens, UniProt P05177).
T1 sequence (P05177 whole entry): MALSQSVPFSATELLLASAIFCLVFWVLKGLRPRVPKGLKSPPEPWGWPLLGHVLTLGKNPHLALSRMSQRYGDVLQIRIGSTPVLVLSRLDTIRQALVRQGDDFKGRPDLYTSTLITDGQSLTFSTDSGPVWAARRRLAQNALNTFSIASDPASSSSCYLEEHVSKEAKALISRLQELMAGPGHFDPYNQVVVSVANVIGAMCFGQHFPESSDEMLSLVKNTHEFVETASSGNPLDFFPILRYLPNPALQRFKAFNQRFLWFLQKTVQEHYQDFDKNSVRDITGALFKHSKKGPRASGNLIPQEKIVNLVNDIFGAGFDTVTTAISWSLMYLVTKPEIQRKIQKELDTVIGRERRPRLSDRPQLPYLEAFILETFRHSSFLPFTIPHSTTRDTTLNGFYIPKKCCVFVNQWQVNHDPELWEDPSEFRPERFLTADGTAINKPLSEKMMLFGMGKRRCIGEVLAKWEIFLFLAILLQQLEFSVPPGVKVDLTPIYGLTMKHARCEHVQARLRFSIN
As for the experimental part: as §1

The target in another experiment is Cytochrome P450 2D6 (Homo sapiens, UniProt P10635). The method, then:
as §1

The target of a further experiment is Cytochrome P450 2C9 (Homo sapiens, UniProt P11712). As for the experimental part:
as §1

The target of another experiment is Cytochrome P450 3A4 (Homo sapiens, UniProt P08684). As for the experimental part:
as §1

Sequence of Cytochrome P450 2D6 (P10635 whole entry): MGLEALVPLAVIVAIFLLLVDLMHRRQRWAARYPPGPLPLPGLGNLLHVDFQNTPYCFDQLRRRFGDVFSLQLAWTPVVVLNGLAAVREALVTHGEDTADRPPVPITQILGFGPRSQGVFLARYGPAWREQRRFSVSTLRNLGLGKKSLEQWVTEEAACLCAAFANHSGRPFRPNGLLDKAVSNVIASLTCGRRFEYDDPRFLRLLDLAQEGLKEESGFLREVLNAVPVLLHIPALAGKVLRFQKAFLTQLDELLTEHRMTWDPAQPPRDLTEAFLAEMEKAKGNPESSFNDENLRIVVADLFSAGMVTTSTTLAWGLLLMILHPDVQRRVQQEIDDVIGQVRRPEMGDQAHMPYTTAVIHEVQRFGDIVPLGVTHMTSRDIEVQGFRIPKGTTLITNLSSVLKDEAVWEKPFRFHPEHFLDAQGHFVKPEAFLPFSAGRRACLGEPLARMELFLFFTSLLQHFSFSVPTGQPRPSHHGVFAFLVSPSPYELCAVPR
Sequence of Cytochrome P450 3A4 (P08684 whole entry): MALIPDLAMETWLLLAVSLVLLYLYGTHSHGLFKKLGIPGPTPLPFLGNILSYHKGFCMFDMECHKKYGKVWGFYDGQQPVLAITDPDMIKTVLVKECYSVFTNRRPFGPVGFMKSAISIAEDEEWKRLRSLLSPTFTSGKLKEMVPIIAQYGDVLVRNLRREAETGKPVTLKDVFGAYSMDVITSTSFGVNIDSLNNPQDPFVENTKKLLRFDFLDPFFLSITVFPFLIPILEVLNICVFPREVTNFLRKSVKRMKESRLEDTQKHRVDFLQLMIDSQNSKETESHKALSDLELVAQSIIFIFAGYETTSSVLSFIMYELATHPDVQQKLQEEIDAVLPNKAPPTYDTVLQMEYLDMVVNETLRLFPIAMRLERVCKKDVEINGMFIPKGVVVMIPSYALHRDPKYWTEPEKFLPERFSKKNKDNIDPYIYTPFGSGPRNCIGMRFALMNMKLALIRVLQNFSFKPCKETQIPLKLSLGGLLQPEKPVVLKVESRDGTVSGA
Sequence of Cytochrome P450 2C9 (P11712 whole entry): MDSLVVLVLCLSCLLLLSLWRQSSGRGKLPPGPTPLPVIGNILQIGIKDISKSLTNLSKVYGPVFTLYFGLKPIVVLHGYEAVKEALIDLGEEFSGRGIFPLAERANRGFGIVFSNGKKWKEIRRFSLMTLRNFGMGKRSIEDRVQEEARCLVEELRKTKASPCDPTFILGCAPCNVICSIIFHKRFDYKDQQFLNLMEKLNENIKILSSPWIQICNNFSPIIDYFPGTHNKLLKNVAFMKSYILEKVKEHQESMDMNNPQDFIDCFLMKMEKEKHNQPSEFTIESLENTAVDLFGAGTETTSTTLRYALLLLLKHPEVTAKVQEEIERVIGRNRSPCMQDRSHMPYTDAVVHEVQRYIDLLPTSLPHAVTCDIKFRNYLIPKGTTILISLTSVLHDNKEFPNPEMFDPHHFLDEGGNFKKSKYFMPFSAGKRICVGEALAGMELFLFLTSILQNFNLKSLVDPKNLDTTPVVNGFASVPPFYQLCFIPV
Sequence of Cytochrome P450 2C19 (P33261 whole entry): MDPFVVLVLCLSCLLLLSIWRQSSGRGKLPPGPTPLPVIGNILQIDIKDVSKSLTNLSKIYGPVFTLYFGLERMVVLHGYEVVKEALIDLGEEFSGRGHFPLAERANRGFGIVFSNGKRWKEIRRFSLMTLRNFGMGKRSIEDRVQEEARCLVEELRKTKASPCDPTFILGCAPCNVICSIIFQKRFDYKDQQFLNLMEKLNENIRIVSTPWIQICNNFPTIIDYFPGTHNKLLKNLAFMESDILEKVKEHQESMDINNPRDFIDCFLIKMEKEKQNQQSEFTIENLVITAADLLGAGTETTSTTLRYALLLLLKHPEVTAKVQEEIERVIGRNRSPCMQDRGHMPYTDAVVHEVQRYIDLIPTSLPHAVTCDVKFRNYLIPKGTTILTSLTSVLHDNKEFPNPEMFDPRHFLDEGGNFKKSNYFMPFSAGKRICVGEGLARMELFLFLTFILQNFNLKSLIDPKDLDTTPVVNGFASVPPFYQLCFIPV

As for `C[C@@H]1Cc2c([nH]c3ccccc23)[C@H](c2c(F)cc(N[C@H]3CCN(CCCF)C3)cc2F)N1CC(F)(F)F` [WO2021228210, Compound 4], the IC50 came to 19.1 µM against Cytochrome P450 2C19; 15.6 µM against Cytochrome P450 1A2; 13.8 µM against Cytochrome P450 2D6; 15.6 µM against Cytochrome P450 2C9; 12.8 µM at Cytochrome P450 3A4.
